# Read-outs that look alike come from different tables or passages of the source.
# What was measured:
# Assay type in all cases: in vivo
# [1] = tested on: barnyardgrass (Echinochloa crus-galli); test: Test A pre-/postemergence plant response; settings: Echinochloa crus-galli, 240 h, read-out: Plant response rating, Barnyardgrass; for pest or weed control at 31 g/ha: 31 g ai/ha; for pest or weed control at 125 g/ha: 125 g ai/ha
# Summary of the method: (§1)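 Scores reflect visual plant injury relative to untreated controls on a 0–100 scale, recorded approximately 10 days after simultaneous preemergence soil spraying and postemergence spraying of one- to two-leaf seedlings grown in loam–sand.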
# corn (Zea mays) = test: Test A pre-/postemergence plant response; settings: Zea mays, 240 h; for Corn plant response rating (crop injury, 0 = no effect, 100 = complete kill) at 31 g/ha: 31 g ai/ha; for Corn plant response rating (crop injury, 0 = no effect, 100 = complete kill) at 125 g/ha: 125 g ai/ha
# Summary of the method: as §1
# [2] = tested on: giant foxtail (Setaria faberi); test: Test A pre-/postemergence plant response; settings: Setaria faberi, 240 h, read-out: Plant response rating, Foxtail, Giant; for pest or weed control at 31 g/ha: 31 g ai/ha; for pest or weed control at 125 g/ha: 125 g ai/ha
# Summary of the method: as §1
# [3] = tested on: large crabgrass (Digitaria sanguinalis); test: Test A pre-/postemergence plant response; settings: Digitaria sanguinalis, 240 h, read-out: Plant response rating, Crabgrass, Large; for pest or weed control at 31 g/ha: 31 g ai/ha; for pest or weed control at 125 g/ha: 125 g ai/ha
# Summary of the method: as §1
# [4] = tested on: pigweed (Amaranthus retroflexus); test: Test A pre-/postemergence plant response; settings: Amaranthus retroflexus, 240 h, read-out: Plant response rating, Pigweed; for pest or weed control at 31 g/ha: 31 g ai/ha; for pest or weed control at 125 g/ha: 125 g ai/ha
# Summary of the method: as §1
# [5] = tested on: wheat (Triticum aestivum); test: Test A pre-/postemergence plant response; settings: Triticum aestivum, 240 h, read-out: Plant response rating, Wheat; for plant injury at 31 g/ha: 31 g ai/ha; for plant injury at 125 g/ha: 125 g ai/ha
# Summary of the method: as §1
# [6] = tested on: surinam grass (Brachiaria decumbens); test: Test B pre-/postemergence plant response; settings: for pest or weed control at 31 g/ha / pest or weed control at 62 g/ha: Urochloa decumbens, read-out: Plant response rating, Surinam Grass; for pest or weed control at 31 g/ha: 31 g ai/ha; for pest or weed control at 62 g/ha: 62 g ai/ha, 100 complete control
# Excerpt: Seeds of plant species selected from blackgrass (Alopecurus myosuroides), downy bromegrass (Bromus tectorum), green foxtail (Setaria viridis), Italian ryegrass (Lolium multiflorum), wheat (Triticum aestivum), wild oat (Avena fatua), catchweed bedstraw (Galium aparine), bermudagrass (Cynodon dactylon), surinam grass (Brachiaria decumbens), cocklebur (Xanthium strumarium), corn (Zea mays), large crabgrass (Digitaria sanguinalis), woolly cupgrass (Eriochloa villosa), giant foxtail (Setaria faberii), goosegrass (Eleusine indica), johnsongrass (Sorghum halepense), kochia (Kochia scoparia), lambsquarters (Chenopodium album), morningglory (Ipomoea coccinea), eastern black (E.B.) nightshade (Solanum ptycanthum), yellow nutsedge (Cyperus esculentus), pigweed (Amaranthus retroflexus), common ragweed (Ambrosia elation), Russian thistle (Salsola iberica), soybean (Glycine max), common (oilseed) sunflower (Helianthus annuus), and velvetleaf (Abutilon theophrasti) were planted and treated preemergence with test chemicals formulated in a non-phytotoxic solvent mixture which included a surfactant.
# At the same time, plants selected from these crop and weed species and also winter barley (Hordeum vulgare), canarygrass (Phalaris minor), chickweed (Stellaria media) and windgrass (Apera spica-venti) were treated with postemergence applications of some of the test chemicals formulated in the same manner. Plants ranged in height from 2 to 18 cm (1- to 4-leaf stage) for postemergence treatments.
# Plant species in the flooded paddy test consisted of rice (Oryza sativa), umbrella sedge (Cyperus difformis), ducksalad (Heteranthera limosa) and barnyardgrass (Echinochloa crus-galli) grown to the 2-leaf stage for testing. At time of treatment, test pots were flooded to 3 cm above the soil surface, treated by application of test compounds directly to the paddy water, and then maintained at that water depth for the duration of the test. Treated plants and controls were maintained in a greenhouse for 13 to 15 days, after which time all species were compared to controls and visually evaluated. Plant response ratings, summarized in Table B, are based on a scale of 0 to 100 where 0 is no effect and 100 is complete control. A dash (-) response means no test result.
# [7] = tested on: canarygrass (Phalaris minor); test: Test B postemergence plant response; settings: for Plant response rating, Canarygrass: Postemergence
# Summary of the method: (§2)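 Following treatment of plants 2 to 18 cm high after emergence, pots were held under glass for 13 to 15 days; efficacy was then graded visually, 100 denoting complete control and a dash no test result.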
# [8] = tested on: chickweed (Stellaria media); test: Test B postemergence plant response; settings: for Plant response rating, Chickweed: Postemergence
# Summary of the method: as §2
# [9] = tested on: windgrass (Apera spica-venti); test: Test B postemergence plant response; settings: for Windgrass plant response rating: postemergence, 0-100 scale; for Plant response rating, Windgrass: Postemergence
# Summary of the method: as §2
# [10] = tested on: winter barley (Hordeum vulgare); test: Test B postemergence plant response; settings: for Plant response rating, Barley: Postemergence, scale 0 to 100, 0 no effect, 100 complete control
# Summary of the method: as §2
# [11] = post-emergence, Postemergence, 0 to 100 scale (0 no effect, 100 complete control)
# [12] = post-emergence, Postemergence, 0 to 100 scale, 0 no effect, 100 complete control
# [13] = pre-emergence, Preemergence, 0 to 100 scale, 0 is no effect, 100 is complete control
# [14] = pre-emergence, Preemergence, 0 to 100 scale (0 no effect, 100 complete control)
# [15] = 8 g ai/ha, postemergence, 0-100 scale
# [16] = 62 g ai/ha, scale 0 to 100, 0 no effect, 100 complete control
structure (smiles),measurement,setting,value
"Cc1cc(-c2ccc(Br)cc2)nn1-c1c(OC(=O)C2CC2)cnn(C(=O)C2CC2)c1=O [Compound 80, 5-[3-(4-bromophenyl)-5-methyl-1H-pyrazol-1-yl]-1-(cyclopropylcarbonyl)-1,6-dihydro-6-oxo-4-pyridazinyl cyclopropanecarboxylate]",pest or weed control at 31 g/ha,[1]; [11],100%
same,pest or weed control at 125 g/ha,[1]; [12],100%
same,pest or weed control at 31 g/ha,[1]; [13],0%
same,pest or weed control at 125 g/ha,[1]; [14],100%
same,"Corn plant response rating (crop injury, 0 = no effect, 100 = complete kill) at 31 g/ha",corn (Zea mays); [11],60%
same,"Corn plant response rating (crop injury, 0 = no effect, 100 = complete kill) at 125 g/ha",corn (Zea mays); [12],100%
same,"Corn plant response rating (crop injury, 0 = no effect, 100 = complete kill) at 31 g/ha",corn (Zea mays); [13],40%
same,"Corn plant response rating (crop injury, 0 = no effect, 100 = complete kill) at 125 g/ha",corn (Zea mays); [14],60%
same,pest or weed control at 31 g/ha,[2]; [11],90%
same,pest or weed control at 125 g/ha,[2]; [12],100%
same,pest or weed control at 31 g/ha,[2]; [13],80%
same,pest or weed control at 125 g/ha,[2]; [14],100%
same,pest or weed control at 31 g/ha,[3]; [11],60%
same,pest or weed control at 125 g/ha,[3]; [12],100%
same,pest or weed control at 31 g/ha,[3]; [13],10%
same,pest or weed control at 125 g/ha,[3]; [14],100%
same,pest or weed control at 31 g/ha,[4]; [11],0%
same,pest or weed control at 125 g/ha,[4]; [12],0%
same,pest or weed control at 31 g/ha,[4]; [13],0%
same,pest or weed control at 125 g/ha,[4]; [14],0%
same,plant injury at 31 g/ha,[5]; [11],30%
same,plant injury at 125 g/ha,[5]; [12],70%
same,plant injury at 31 g/ha,[5]; [13],20%
same,plant injury at 125 g/ha,[5]; [14],80%
same,Surinam Grass plant response rating,[6]; [15],95
same,Surinam Grass plant response rating,"[6]; 16 g ai/ha, postemergence, 0-100 scale",100
same,Surinam Grass plant response rating,"[6]; Preemergence, 8 g ai/ha, scale 0 to 100 (0 no effect, 100 complete control)",0
same,Surinam Grass plant response rating,"[6]; Preemergence, 16 g ai/ha, scale 0 to 100",65
same,pest or weed control at 31 g/ha,"[6]; post-emergence, Postemergence, scale 0 to 100",100%
same,pest or weed control at 62 g/ha,"[6]; post-emergence, Postemergence, scale 0 to 100, 0 no effect",100%
same,pest or weed control at 31 g/ha,"[6]; pre-emergence, Preemergence, scale 0 to 100 (0 no effect, 100 complete control)",98%
same,pest or weed control at 62 g/ha,"[6]; pre-emergence, Preemergence, 0 to 100 scale, 0 no effect",100%
same,Canarygrass plant response rating,[7]; [15],90
same,"Plant response rating, Canarygrass","[7]; 16 g ai/ha, scale 0 to 100",98
same,"Plant response rating, Canarygrass","[7]; 31 g ai/ha, scale 0 to 100",100
same,"Plant response rating, Canarygrass",[7]; [16],100
same,Chickweed plant response rating,[8]; [15],0
same,"Plant response rating, Chickweed","[8]; 16 g ai/ha, scale 0 to 100",0
same,"Plant response rating, Chickweed","[8]; 31 g ai/ha, scale 0 to 100",0
same,"Plant response rating, Chickweed",[8]; [16],0
same,Windgrass plant response rating,[9]; 8 g ai/ha,30
same,Windgrass plant response rating,[9]; 16 g ai/ha,40
same,"Plant response rating, Windgrass","[9]; 31 g ai/ha, scale 0 to 100",60
same,"Plant response rating, Windgrass",[9]; [16],70
same,Barley plant response rating,[10]; [15],30
same,"Plant response rating, Barley",[10]; 16 g ai/ha,60
same,"Plant response rating, Barley",[10]; 31 g ai/ha,95
same,"Plant response rating, Barley",[10]; 62 g ai/ha,98
